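Test compounds were applied to cells in 96-well plates for 48 hours at 5 doses. The concentration for 50% growth inhibition is given as GI50.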 Activity calls are given as the source filed them. No stated cut-off is given here; in the data, active = GI50 up to about 1.1 µM and inactive = higher.
Key:
Assay in all cases: DTP human tumour cell line panel, 48 h
[1] = tested on: SNB-19
[2] = tested on: K562
[3] = tested on: SK-OV-3
[4] = tested on: NCI-H460
[5] = tested on: UO-31
[6] = tested on: SN12C
[7] = tested on: HOP-92
[8] = tested on: RPMI-8226
[9] = tested on: HCC 2998
[10] = tested on: MOLT-4
[11] = tested on: SW-620
[12] = tested on: OVCAR-8
[13] = tested on: HCT-116
[14] = tested on: SF-539
[15] = tested on: A498
[16] = tested on: IGROV-1
[17] = tested on: RXF 393
[18] = tested on: HL-60

SMILES | GI50 [1] | GI50 [2] | GI50 [3] | GI50 [4] | GI50 [5] | GI50 [6] | GI50 [7] | GI50 [8] | GI50 [9] | GI50 [10] | GI50 [11] | GI50 [12] | GI50 [13] | GI50 [14] | GI50 [15] | GI50 [16] | GI50 [17] | GI50 [18]
CCNC(=O)O/N=C1\CCC2[C@@H]3CC=C4C[C@@H](OC(=O)NCC)CC[C@]4(C)C3CC[C@]12C (stereo partly specified) | 0.495 µM (active) | 0.769 µM (active) | 7.82 µM (inactive) | 1.83 µM (inactive) | 1.21 µM (inactive) | 2.65 µM (inactive) | 3.08 µM (inactive) | 1.46 µM (inactive) | 4.68 µM (inactive) | 1.05 µM (active) | 3.61 µM (inactive) | 4.03 µM (inactive) | 0.57 µM (active) | 8.95 µM (inactive) | 22.3 µM (inactive) | 4.43 µM (inactive) | 3.42 µM (inactive) | –
C#CC1(O)CCC2C3CCc4cc(Oc5nc(F)nc(-c6c7ccccc7c7sc8ccccc8n67)n5)ccc4C3CC[C@@]21C (stereo partly specified) | 36.3 µM (inactive) | > 100 µM (inactive) | – | > 100 µM (inactive) | > 100 µM (inactive) | – | > 100 µM (inactive) | > 100 µM (inactive) | > 100 µM (inactive) | 42 µM (inactive) | > 100 µM (inactive) | > 100 µM (inactive) | > 100 µM (inactive) | > 100 µM (inactive) | – | > 100 µM (inactive) | – | > 100 µM (inactive)
N/N=C1\C(=O)N(C2CCCCCC2)C(=O)C1C(=O)NC1CCCCCC1 (stereo unspecified) | 35.6 µM (inactive) | 30.3 µM (inactive) | – | 42.7 µM (inactive) | 20.3 µM (inactive) | 27.9 µM (inactive) | 21.3 µM (inactive) | – | 25.6 µM (inactive) | 22 µM (inactive) | 28.3 µM (inactive) | 39.3 µM (inactive) | – | 24.7 µM (inactive) | 38 µM (inactive) | 38 µM (inactive) | 40 µM (inactive) | 19.8 µM (inactive)
O=C(CC1(O)C(=O)Nc2ccccc21)c1cccc(O)c1 (stereo unspecified) | > 100 µM (inactive) | > 100 µM (inactive) | > 100 µM (inactive) | > 100 µM (inactive) | 46.1 µM (inactive) | > 100 µM (inactive) | > 100 µM (inactive) | > 100 µM (inactive) | – | > 100 µM (inactive) | > 100 µM (inactive) | > 100 µM (inactive) | > 100 µM (inactive) | > 100 µM (inactive) | > 100 µM (inactive) | > 100 µM (inactive) | > 100 µM (inactive) | > 100 µM (inactive)
CCCOc1ccc(/C=C\c2cc(OC)c(OC)c(OC)c2)cc1 | > 100 µM (inactive) | 23.8 µM (inactive) | – | 68.2 µM (inactive) | 33.2 µM (inactive) | 65.3 µM (inactive) | 34.7 µM (inactive) | 14.5 µM (inactive) | – | – | 55.1 µM (inactive) | > 100 µM (inactive) | 40.5 µM (inactive) | 74.3 µM (inactive) | 26.6 µM (inactive) | > 100 µM (inactive) | 40.1 µM (inactive) | 18.9 µM (inactive)
CCCN(CCC)c1c([N+](=O)[O-])cc(C(=O)N(C)C)cc1[N+](=O)[O-] | – | 19.2 µM (inactive) | > 100 µM (inactive) | 47.3 µM (inactive) | 92.9 µM (inactive) | > 100 µM (inactive) | – | 52.2 µM (inactive) | > 100 µM (inactive) | 41 µM (inactive) | – | > 100 µM (inactive) | 43.4 µM (inactive) | > 100 µM (inactive) | – | 69.2 µM (inactive) | – | 15.6 µM (inactive)
CCc1cccc(C)c1NC(=O)C(=O)Cc1nc2ccccc2s1 | > 100 µM (inactive) | > 100 µM (inactive) | > 100 µM (inactive) | > 100 µM (inactive) | > 100 µM (inactive) | > 100 µM (inactive) | 0.47 µM (active) | – | > 100 µM (inactive) | > 100 µM (inactive) | 0.371 µM (active) | > 100 µM (inactive) | > 100 µM (inactive) | > 100 µM (inactive) | > 100 µM (inactive) | 0.444 µM (active) | > 100 µM (inactive) | > 100 µM (inactive)
COc1ccc2oc3c(OC)c(OC)c(OC)cc3c(=O)c2c1 | > 100 µM (inactive) | > 100 µM (inactive) | > 100 µM (inactive) | > 100 µM (inactive) | > 100 µM (inactive) | > 100 µM (inactive) | – | > 100 µM (inactive) | > 100 µM (inactive) | > 100 µM (inactive) | > 100 µM (inactive) | > 100 µM (inactive) | > 100 µM (inactive) | 40.4 µM (inactive) | > 100 µM (inactive) | > 100 µM (inactive) | 21.4 µM (inactive) | –
CN(Cc1ccccc1)C(=O)c1ccccc1C(=O)O | > 100 µM (inactive) | > 100 µM (inactive) | > 100 µM (inactive) | > 100 µM (inactive) | > 100 µM (inactive) | > 100 µM (inactive) | > 100 µM (inactive) | > 100 µM (inactive) | > 100 µM (inactive) | > 100 µM (inactive) | > 100 µM (inactive) | > 100 µM (inactive) | > 100 µM (inactive) | > 100 µM (inactive) | – | > 100 µM (inactive) | > 100 µM (inactive) | > 100 µM (inactive)
